3 compounds from ChEMBL document CHEMBL3638598, “Pyrazolo pyrimidine derivatives” (2014) can be followed below.

Chain of G-prodeshotein coupled receptor 4 (P46093 whole entry): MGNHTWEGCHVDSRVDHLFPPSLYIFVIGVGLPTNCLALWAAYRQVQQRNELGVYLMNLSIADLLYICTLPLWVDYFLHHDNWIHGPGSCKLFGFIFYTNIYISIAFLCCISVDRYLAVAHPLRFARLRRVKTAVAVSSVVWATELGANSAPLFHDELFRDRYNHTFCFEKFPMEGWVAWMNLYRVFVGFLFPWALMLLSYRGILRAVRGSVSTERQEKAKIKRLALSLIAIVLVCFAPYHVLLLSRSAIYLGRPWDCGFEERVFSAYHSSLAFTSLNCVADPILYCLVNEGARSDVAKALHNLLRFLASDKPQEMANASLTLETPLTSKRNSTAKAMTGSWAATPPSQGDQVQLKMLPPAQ

This test addresses G-prodeshotein coupled receptor 4 (Homo sapiens, UniProt P46093). The test can be described thus: Radio Ligand Binding Assay: Serial dilutions of compounds (stock in 10 mM DMSO) are prepared by first diluting the compounds in DMSO followed by a 1:50 dilution into assay buffer (10 mM HEPES, pH 8.0, 100 mM NaCl, 5 mM MgCl2, 1 mM CaCl2, 0.5% fatty acid-free BSA, 0.05% Tween-20). […] The desired amount of membranes (20 μg/well) is diluted with assay buffer. […] 100 μL of the membrane-suspension is added and the plate stirred for 60 minutes.
A word on the IC50: it is the concentration that gives 50% inhibition. A lower IC50 goes with inhibition by little substance. For the compound `CCc1nn2c(C)cc(C)nc2c1Cc1ccc(OCC2CCNCC2)cc1`, the half-inhibitory concentration (IC50) was 22 nM.
`CCc1nn2c(C)cc(C)nc2c1Cc1ccc(OC[C@H]2CC[C@@H](N)CC2)cc1` yielded an IC50 of 35 nM.
With `CCc1nn2c(C)cc(C)nc2c1Cc1ccc(OC[C@H]2CC[C@@H](NC(=O)[C@H]3NCC[C@H]3O)CC2)cc1`, the IC50 amounted to 54 nM.
